Counter-ions that a name gives are not always drawn.
Biological target: T1, human blood clotting factor VIIa (Homo sapiens, UniProt P08709)
T1 construct: 5 nM human blood clotting factor VIIa
Assay: Inhibiting activity against blood clotting factor VIIa (Spectrozyme VII chromogenic assay)
Assay type: biochemical
Conditions: 10 nM human tissue factor, 5 nM human blood clotting factor VIIa, Spectrozyme VII substrate, 40 minutes at room temperature, absorbance 405 nm
Protocol: Pharmacological Activity Test (Inhibiting Activity Against Blood Clotting Factor VIIa)
Compounds of the present invention (Examples 1-4, 1-26, 1-39, 1-40 and 8-3) were each dissolved in dimethyl sulfoxide to 5 mg/ml, and then each solution was diluted 50-fold with reaction buffer to prepare a 100 μg/ml solution (2% dimethyl sulfoxide solution) Also, a 10-fold dilution series with reaction buffer was prepared with the compound solutions from 100 μg/ml to 1 ng/ml. Separately, dimethyl sulfoxide alone was diluted 50-fold with reaction buffer to prepare a 2% dimethyl sulfoxide solution as a control. The composition of the reaction buffer was 50 mM Tris-acetate (pH 7.5), 15 mM calcium chloride (CaCl2), 0.15 M sodium chloride (NaCl) and 6 mg/ml Cephalin. There were also added to the buffer 10 nM human tissue factor (TF) and 5 nM human blood clotting factor VIIa, to prepare enzyme solutions. After separating off 65 μl of each solution, a 10 μl portion of the 2% dimethyl sulfoxide solution of each compound of the invention was added and preincubation was performed at room temperature. As a substrate there was added 25 μl of 1.0 mM Spectrozyme VII, and reaction was conducted for 40 minutes at room temperature. The enzyme reaction rate was quantified by the change ion absorbance of released 4-nitroanilide at 405 nm.
For measurement of the inhibiting activity against human blood clotting factor VIIa, the enzyme reaction rate was determined in the presence of the above-mentioned compounds of the present invention from 10 μg/ml to 0.1 ng/ml. The IC50 values were calculated based on nonlinear regression analysis, as an index of the inhibiting activity against human blood clotting factor VIIa.

T1 sequence (P08709 213-466 limits assumed): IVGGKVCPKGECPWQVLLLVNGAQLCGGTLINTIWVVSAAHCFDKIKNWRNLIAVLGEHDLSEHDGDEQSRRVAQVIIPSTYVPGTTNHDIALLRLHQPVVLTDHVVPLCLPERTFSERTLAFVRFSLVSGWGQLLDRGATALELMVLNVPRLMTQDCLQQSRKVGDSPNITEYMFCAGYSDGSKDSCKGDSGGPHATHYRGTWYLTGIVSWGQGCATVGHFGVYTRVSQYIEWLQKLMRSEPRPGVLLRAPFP
T1 sequence (P08709 61-212 limits assumed): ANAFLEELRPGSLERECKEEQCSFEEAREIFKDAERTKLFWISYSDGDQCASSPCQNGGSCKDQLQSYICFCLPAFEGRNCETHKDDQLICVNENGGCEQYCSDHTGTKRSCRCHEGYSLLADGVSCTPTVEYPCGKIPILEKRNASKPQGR
T1 sequence (P13726 33-295 partner): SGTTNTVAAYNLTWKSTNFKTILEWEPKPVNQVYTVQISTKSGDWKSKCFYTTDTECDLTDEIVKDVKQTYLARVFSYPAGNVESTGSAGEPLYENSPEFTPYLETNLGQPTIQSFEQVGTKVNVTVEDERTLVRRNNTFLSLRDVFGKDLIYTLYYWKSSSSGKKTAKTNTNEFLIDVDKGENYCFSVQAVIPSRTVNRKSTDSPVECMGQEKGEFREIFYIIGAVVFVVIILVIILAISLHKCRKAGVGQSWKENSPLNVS

Q: With N=C(N)c1ccc2cc(Oc3ccc(NS(=O)(=O)c4ccc5ccccc5c4)cc3C(=O)O)ccc2c1 [Example 1-4, 2-(6-amidino-2-naphthyloxy)-5-(2-naphthalenesulfonyl)aminobenzoic acid trifluoroacetate] as the compound, how does the IC50 read?
A: 1430 nM

Q: COc1ccc(S(=O)(=O)Nc2ccc(Oc3ccc4cc(C(=N)N)ccc4c3)c(-c3ccccc3C(=O)O)c2)cc1 [Example 1-26, 2′-(6-amidino-2-naphthyloxy)-5′-(4-methoxybenzenesulfonyl)amino-1,1′-biphenyl-2-carboxylic acid trifluoroacetate] was tested. Which IC50 did it give?
A: 210 nM

Q: Which IC50 does the source give for Cc1ccc(S(=O)(=O)Nc2ccc(Oc3ccc4cc(C(=N)N)ccc4c3)c(-c3ccc(C(=O)NCC(C)C)cc3C(=O)O)c2)cc1Cl [Example 8-3, 2′-(6-amidino-2-naphthyloxy)-4-(2-methylpropylcarbamoyl)-5′-(3-chloro-4-methylbenzenesulfonyl)amino-1,1′-biphenyl-2-carboxylic acid trifluoroacetate] here?
A: 4 nM

Q: How did the IC50 turn out when Cc1ccc(S(=O)(=O)Nc2ccc(Oc3ccc4cc(C(=N)N)ccc4c3)c(-c3ccccc3C(=O)O)c2)cc1Cl [Example 1-40, 2′-(6-amidino-2-naphthyloxy)-5′-(3-chloro-4-methylbenzenesulfonyl)amino-1,1′-biphenyl-2-carboxylic acid trifluoroacetate] was run?
A: 40 nM

Q: Which IC50 does the source give for CC(=O)N1CCc2ccc(S(=O)(=O)Nc3ccc(Oc4ccc5cc(C(=N)N)ccc5c4)c(-c4ccccc4C(=O)O)c3)cc2C1 [Example 1-39, 2′-(6-amidino-2-naphthyloxy)-5′-[1,2,3,4-tetrafluoro-2-(acetyl)isoquinoline-7-sulfonyl)amino-1,1′-biphenyl-2-carboxylic acid trifluoroacetate] here?
A: 30 nM

Source: patent US6916837B2, “Amidino derivatives and anticoagulants and thrombosis therapeutic agents containing them” (Eisai Co., Ltd., priority 2001, dated 2005)
